In patent publication US20250282736A1, “SMALL MOLECULE MODULATORS OF HUMAN PREGNANE X RECEPTOR” (ST. JUDE CHILDREN'S RESEARCH HOSPITAL, priority 2022, published 2025):

Columns and labels:
hPXR [1] = target: T1, hPXR (Homo sapiens (Human), UniProt O75469); assay: hPXR binding assay; conditions: for inhibition at 10 µM: read-out: Binding (% inhibition at 10 μM)
hPXR [2] = target: T1, hPXR; assay: cell-based hPXR agonistic assay
hPXR [3] = target: T1, hPXR; assay: cell-based hPXR antagonistic assay; conditions: for inhibition at 10 µM: read-out: Antagonist (% inhibition at 10 μM)
hPXR [4] = target: T1, hPXR; assay: cell-based hPXR inverse agonistic assay; conditions: for inhibition at 10 µM: read-out: Inverse agonist (% inhibition at 10 μM)
[5] = read-out: Binding (IC50/μM), hPXR binding assay

T1 sequence (O75469 whole entry): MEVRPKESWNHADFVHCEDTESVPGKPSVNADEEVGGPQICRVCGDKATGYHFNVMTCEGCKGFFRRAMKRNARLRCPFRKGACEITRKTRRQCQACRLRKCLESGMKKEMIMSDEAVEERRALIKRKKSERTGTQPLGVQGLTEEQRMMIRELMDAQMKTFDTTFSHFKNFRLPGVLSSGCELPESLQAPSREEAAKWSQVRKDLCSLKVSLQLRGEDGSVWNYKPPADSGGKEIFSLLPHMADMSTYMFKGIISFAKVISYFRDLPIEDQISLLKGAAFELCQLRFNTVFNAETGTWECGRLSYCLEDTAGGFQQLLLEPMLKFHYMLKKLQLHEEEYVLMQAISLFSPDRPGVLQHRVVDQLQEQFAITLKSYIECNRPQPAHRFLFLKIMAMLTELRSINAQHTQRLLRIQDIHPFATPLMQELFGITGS

| SMILES | IC50 (hPXR [1]; [5]) [µM] | EC50 (hPXR [2]) [µM] | Antagonist (% inhibition at 10 μM) (hPXR [3]; at 10 μM, SPA70 at 10 μM with rifampicin (5 μM) as 100% inhibition, rifampicin alone (5 μM) as 0%) | IC50 (hPXR [3]; read-out: Antagonist (IC50/μM), cell-based hPXR antagonistic assay with rifampicin (5 μM)) [µM] | IC50 (hPXR [4]; read-out: Inverse agonist (IC50/μM), cell-based hPXR inverse agonistic assay) [µM] | inhibition at 10 µM (hPXR [1]) [%] | IC50 (hPXR [3]) [µM] | inhibition at 10 µM (hPXR [3]) [%] | IC50 (hPXR [4]) [µM] | inhibition at 10 µM (hPXR [4]) [%] | IC50 (hPXR [1]) [µM] | Agonist (% activation at 10 μM) (hPXR [2]; at 10 μM, rifampicin at 10 μM as 100% activation, DMSO (0.3%) as 0%) |
| --- | --- | --- | --- | --- | --- | --- | --- | --- | --- | --- | --- | --- |
| COc1ccc(OC)c(-n2nnc(C(=O)Nc3cc(NC(=O)CCC(=O)O)cc(C(C)(C)C)c3)c2C)c1 [D6, 4-((3-(tert-butyl)-5-(1-(2,5-dimethoxyphenyl)-5-methyl-1H-1,2,3-triazole-4-carboxamido)phenyl)amino)-4-oxobutanoic acid] | 1.26 | > 30 | – | – | – | 70 | 22.1 ± 4.86 | 25 | 12.7 ± 4.69 | 48 | – | – |
| COc1ccc(OC)c(-n2nnc(C(=O)Nc3cc(NCC(=O)OC(C)(C)C)cc(C(C)(C)C)c3)c2C)c1 [D8, tert-butyl (3-(tert-butyl)-5-(1-(2,5-dimethoxyphenyl)-5-methyl-1H-1,2,3-triazole-4-carboxamido)phenyl)glycinate] | 0.33 | > 30 | – | – | – | 81 | 0.46 ± 0.06 | 104 | 0.12 | 127 | – | – |
| COc1ccc(OC)c(-n2nnc(C(=O)Nc3cc(NCC(=O)O)cc(C(C)(C)C)c3)c2C)c1 [D9] | 3.53 ± 0.58 | > 30 | – | – | – | 61 | 17.3 ± 1.39 | 65 | 1.7 | 107 | – | – |
| COc1ccc(OC)c(-n2nnc(C(=O)Nc3cc(NCCN)cc(C(C)(C)C)c3)c2C)c1 [D10] | – | > 30 | – | – | – | – | 11.9 ± 2.27 | 104 | 7.09 ± 1.37 | 130 | > 30 | – |
| COc1ccc(OC)c(-n2nnc(C(=O)Nc3cc(N=C=S)cc(C(C)(C)C)c3)c2C)c1 [D11] | 2.6 ± 0.51 | > 30 | – | – | – | 47 | 30.2 ± 16.1 | 26 | 2.55 ± 0.64 | 95 | – | – |
| COc1ccc(OC)c(-n2nnc(C(=O)Nc3cc(OC(=O)c4nnn(-c5cc(OC)ccc5OC)c4C)cc(C(C)(C)C)c3)c2C)c1 [D13, 3-(tert-butyl)-5-(1-(2,5-dimethoxyphenyl)-5-methyl-1H-1,2,3-triazole-4-carboxamido)phenyl 1-(2,5-dimethoxyphenyl)-5-methyl-1H-1,2,3-triazole-4-carboxylate] | – | > 30 | – | – | – | – | 0.83 ± 0.11 | 68 | 0.15 | 93 | > 30 | – |
| COc1ccc(OC)c(-n2nnc(C(=O)Nc3cc(OCCCCI)cc(C(C)(C)C)c3)c2C)c1 [D17, N-(3-(tert-butyl)-5-(4-iodobutoxy)phenyl)-1-(2,5-dimethoxyphenyl)-5-methyl-1H-1,2,3-triazole-4-carboxamide] | 0.18 | > 30 | – | – | – | 50 | 0.066 ± 0.007 | 112 | 0.0088 ± 0.003 | 120 | – | – |
| COc1ccc(OC)c(-n2nnc(C(=O)Nc3cc(OCC(=O)OC(C)(C)C)cc(C(C)(C)C)c3)c2C)c1 [D31, tert-butyl 2-(3-(tert-butyl)-5-(1-(2,5-dimethoxyphenyl)-5-methyl-1H-1,2,3-triazole-4-carboxamido)phenoxy)acetate] | 0.16 | > 30 | – | – | – | 73 | 0.43 | 105 | 0.1 | 126 | – | – |
| COc1ccc(-n2nnc(C(=O)Nc3cccc(N4CCCC4)c3)c2C)cc1 [E1, 1-(4-methoxyphenyl)-5-methyl-N-(3-(pyrrolidin-1-yl)phenyl)-1H-1,2,3-triazole-4-carboxamide] | – | 0.32 ± 0.1 | – | – | – | – | > 30 | – | > 30 | – | > 30 | (30 ± 7)% |

Further lines, results first:

| IC50 (hPXR [1]; [5]) [µM] | EC50 (hPXR [2]) [µM] | Antagonist (% inhibition at 10 μM) (hPXR [3]; at 10 μM, SPA70 at 10 μM with rifampicin (5 μM) as 100% inhibition, rifampicin alone (5 μM) as 0%) | IC50 (hPXR [3]; read-out: Antagonist (IC50/μM), cell-based hPXR antagonistic assay with rifampicin (5 μM)) [µM] | IC50 (hPXR [4]; read-out: Inverse agonist (IC50/μM), cell-based hPXR inverse agonistic assay) [µM] | inhibition at 10 µM (hPXR [1]) [%] | IC50 (hPXR [3]) [µM] | inhibition at 10 µM (hPXR [3]) [%] | IC50 (hPXR [4]) [µM] | inhibition at 10 µM (hPXR [4]) [%] | IC50 (hPXR [1]) [µM] | Agonist (% activation at 10 μM) (hPXR [2]; at 10 μM, rifampicin at 10 μM as 100% activation, DMSO (0.3%) as 0%) | SMILES |
| --- | --- | --- | --- | --- | --- | --- | --- | --- | --- | --- | --- | --- |
| 0.5 ± 0.12 | > 30 | (82 ± 17)% | 0.62 ± 0.28 | 0.15 | – | – | – | – | – | – | – | CCCCN(CCCC)c1cc(NC(=O)c2nnn(-c3cc(OC)ccc3OC)c2C)cc(C(C)(C)C)c1 [D5, N-(3-(tert-butyl)-5-(dibutylamino)phenyl)-1-(2,5-dimethoxyphenyl)-5-methyl-1H-1,2,3-triazole-4-carboxamide] |
| – | > 30 | – | – | – | – | 5.32 | 105 | 3.73 ± 0.3 | 126 | > 30 | – | COc1ccc(OC)c(-n2nnc(C(=O)Nc3cc(OCCCN4CCN(C)CC4)cc(C(C)(C)C)c3)c2C)c1 [D18] |
| 0.024 | > 30 | – | – | – | 25 | 0.19 | 107 | 0.032 ± 0.007 | 116 | – | – | C#CCCCOc1cc(NC(=O)c2nnn(-c3cc(OC)ccc3OC)c2C)cc(C(C)(C)C)c1 [D19] |
| 1 | > 30 | – | – | – | 42 | 11.5 ± 2.81 | 35 | 0.82 ± 0.12 | 104 | – | – | CCCCCCCCOc1cc(NC(=O)c2nnn(-c3cc(OC)ccc3OC)c2C)cc(C(C)(C)C)c1 [D20] |
| 1.09 ± 0.31 | > 30 | – | – | – | 59 | 2.7 | 82 | 0.33 | 92 | – | – | COc1ccc(OC)c(-n2nnc(C(=O)Nc3cc(OCCCCCCCCI)cc(C(C)(C)C)c3)c2C)c1 [D21, N-(3-(tert-butyl)-5-((8-iodooctyl)oxy)phenyl)-1-(2,5-dimethoxyphenyl)-5-methyl-1H-1,2,3-triazole-4-carboxamide] |
| 0.57 | > 30 | – | – | – | 58 | 2.69 ± 0.93 | 46 | 1.07 ± 0.43 | 53 | – | – | COc1ccc(OC)c(-n2nnc(C(=O)Nc3cc(OCCCCCCCCCl)cc(C(C)(C)C)c3)c2C)c1 [D24] |
| 1.13 ± 0.36 | > 30 | – | – | – | 77 | 1.28 ± 0.28 | 189 | 0.24 | 111 | – | – | COc1ccc(OC)c(-n2nnc(C(=O)Nc3cc(OCCCCCCCC=O)cc(C(C)(C)C)c3)c2C)c1 [D26] |
| 1 ± 0.08 | > 30 | – | – | – | 70 | 2.14 ± 0.36 | 92 | 1.14 ± 0.58 | 91 | – | – | COCCOCCOCCOCCOc1cc(NC(=O)c2nnn(-c3cc(OC)ccc3OC)c2C)cc(C(C)(C)C)c1 [D27] |
| 0.31 ± 0.17 | > 30 | – | – | – | 25 | 1.09 ± 0.3 | 107 | 0.31 | 105 | – | – | COC(=O)CCCOc1cc(NC(=O)c2nnn(-c3cc(OC)ccc3OC)c2C)cc(C(C)(C)C)c1 [D29] |
| 1.71 ± 0.33 | > 30 | – | – | – | 71 | 0.92 ± 0.12 | 104 | 0.19 | 118 | – | – | COc1ccc(OC)c(-n2nnc(C(=O)Nc3cc(OCCCC(=O)O)cc(C(C)(C)C)c3)c2C)c1 [D30] |
| – | > 30 | – | – | – | – | > 30 | – | > 30 | – | > 30 | – | COc1ccc(OC)c(-n2nnc(C(=O)Nc3cc(OCC(=O)O)cc(C(C)(C)C)c3)c2C)c1 [D32] |
| – | > 30 | – | – | – | – | 19.7 ± 7.63 | 84 | > 30 | – | > 30 | – | COc1ccc(OC)c(-n2nnc(C(=O)Nc3cc(OCCOCCOCCOCCN)cc(C(C)(C)C)c3)c2C)c1 [D35] |
